Test results: patent publication US8623996B2, “Cold active enzyme and method thereof” (University Putra Malaysia, priority 2010, dated 2014)
Square brackets hold non-standard residues; d marks the D form. Peptide text beside a SMILES is read from it. * marks the point of attachment. Sta = CC(C)C[C@H](N)[C@@H](O)CC(=O)O; Isovaleryl = CC(C)CC(=O)*

Assays:
[1] = tested on: LipPI12 lipase; assay: Organic solvent tolerance of LipPI12 lipase; assay type: biochemical, Leucosporodium antarcticum PI12; conditions: 3 ml enzyme solution + 1 ml solvent, 20° C., 30 min
Method: (§1) Protease activity ?; Lipase activity ? .
(§2) Study On LipPI12 organic solvent stability was carried out in reaction mixture containing purified LipPI12 and various solvents. The mixture was incubated at 20° C. with shaking rates at 150 rpm for 30 min. Control reaction was done by mixing the enzyme with water. Relative activity of lipase was determined according Kwon and Rhee (1986) method. Whereby protease assay was done according to Brock et, al., (1982). The effects of various organic solvents on the stability of the cold active LipPI12 were studied. A mixture of 3 ml enzyme solution and 1 ml of an organic solvent was incubated at 20° C. with shaking, and the remaining activity was measured after 30 min of incubation.

[2] = tested on: LipPI12 protease; assay: Effect of metal ions on LipPI12 protease activity; assay type: biochemical, Leucosporodium antarcticum PI12; conditions: 1 mM metal ion, 30 min at 20° C.
Method: (§3) Both the lipase and protease were treated with 1 mM of various metal ions for 30 mins prior to enzyme assays. Lipase activity ?; protease activity ? .
(§4) Various metal ions were tested by treating the purified enzyme with 1 mM of metal ions such as Na^+, Mg^2+, Ca^2+, Fe^2+, Mn^2+, K^+, Zn^2+ and Cu^2+ for 30 min at 20° C. It was subjected to lipase and protease assays after treatment. The effects of various metal ions were tested on the purified LipPI12 activity and the remaining activity was assayed using olive oil emulsion. […] This is an indication which explains the role of Ca ion which may work as a stabilizer to the molecule, as predicted in the LipPI12 3D model. Whereas, the beta roll motif, served as a metal binding site, presumably predicted for the Ca ions. […] Na^+ Mg^2+ and Fe^2+ have toxic effect to the enzyme. Other metal ions tested were CuCl2, ZnCl2 and MnCl2, which had obviously made the lipase to be slightly stable and with no elimination of activity relatively not less than 50% (FIG. 27).
Protease LipPI12 looks more susceptible to all metal ions tested. […] The incubation with Na^+ and […] ions had done little effect as compared to the destabilizing manner shown by divalent ions of Cu^2+ and Mn^2+. […] A novel binding site for Zn ion may be involved in protease LipPI12. Structural elucidation is the best way to decipher the findings. The activation effect of Ca ion in both lipase and protease of LipPI12 is caused by the nature of the psychrophilic enzyme. Huge conformational movement will probably allow active residue rearrangement and can provide better accessibility of substrate, thus giving rise to a unique enzyme like LipPI12. This is achieved via local flexibility and mobility as the enzyme from psychrophiles evolves to withstand the extreme conditions, not only the coldness but also the low water content and substrate availability. Metal ions have been recognized to have effects on the activity of various enzymes. They bind the substrate and orient them properly for the reaction to occur. Besides mediating oxidation-reduction reactions, they can also electrostatically stabilize or shield negative charges. On the other hand, based on the correlation between the enzymes and metal ions, these enzymes could be classified into two types: Metalloenzymes and Metal-activated enzyme. In Metalloenzyme, metal ions such as Fe, Cu, Mn, Co are tightly bound ion pairs. While in the metal-activated enzymes, the metal ions such as Na, K, Mg, and Ca are loosely bound metal ions from the solution. Based on these facts, the protease LipPI12 is considered as a metal-activated enzyme.

[3] = tested on: LipPI12 lipase; assay: Substrate specificity of LipPI12 lipase, para-nitrophenyl esters; assay type: biochemical, Leucosporodium antarcticum PI12; conditions: versus butyrate (C4), caprylate (C8), laurate (12)
Method: Values in bracket represent the fatty acid carbon chain length.
(§5) Various triglycerides (triacetin, tributyrin, tricaprylin, triolein) p-nitrophenol esters (p-nitrophenylbutyrate, p-nitrophenylcaprylate, p-nitrophenyllaurate, p-nitrophenylpalmitate) and natural oils (olive oil, soy bean oil, corn oil, sun flower oil, rice brain oil, coconut and palm oil) were tested for the cold active LipPI12 lipase activity. It was assayed at 20° C. for 30 min colorimetrically. The capability of the LipPI12 to hydrolyze different carbon chain lengths of triglycerides was investigated. […] LipPI12 lipase substrate specificity towards medium chain length was also observed in natural oils. […] LipPI12 low efficiency or inability to catalyze such substrate was probably due to improper substrate and active coordination and limited substrate accessibility as a result of cis conformation of aliphatic chain when compared to the trans conformation which is much linear. Artificial substrate was also used in the form of esters, namely para-nitrophenyl (pNP) esters containing carbon chain ranging from C4 (butyrate) to C16 (palmitate). […] Certainly, LipPI12 broad substrate specificity, which posed a huge prospect in application and the understanding of mechanism, is important. Nonetheless, the profile of substrate is a crucial point, where accessibility determines substrate specificity. […]

[4] = tested on: isolate PI12; assay: Antibiotic resistance of isolate PI12; assay type: cell-based, Leucosporodium antarcticum
Method: The bacterium was grown in nutrient broth and agar plates at 4° C. without shaking. Visible growth was observed after one week of incubation. […] The growth of isolate PI12 was inhibited at 25-37° C.
Extracellular enzyme activities, by isolate PI12 namely protease and lipase, were also observed.

[5] = tested on: LipPI12 protease; assay: Organic solvent tolerance of LipPI12 protease; assay type: biochemical, Leucosporodium antarcticum PI12; conditions: 3 ml enzyme solution + 1 ml solvent, 20° C., 30 min
Method: as §1, §2

[6] = tested on: LipPI12 lipase; assay: Substrate specificity of LipPI12 lipase, pure triglycerides; assay type: biochemical, Leucosporodium antarcticum PI12; conditions: 20° C., 30 min, substrate 1:1 v/v
Method: Values in bracket represent the carbon chain length of each substrate. LipPI12 lipase was assayed with the pure triglycerides (1:1, v/v) as substrate.
as §5, with “important.” for “important. Nonetheless, the profile of substrate is a crucial point, where accessibility determines substrate specificity.”

[7] = tested on: LipPI12 lipase; assay: Effect of metal ions on LipPI12 lipase activity; assay type: biochemical, Leucosporodium antarcticum PI12; conditions: 1 mM metal ion, 30 min at 20° C.
Method: as §3, §4

[8] = tested on: LipPI12 lipase; assay: Effect of inhibitors on LipPI12 lipase activity; assay type: biochemical, Leucosporodium antarcticum PI12; conditions: 1 mM inhibitor, 20° C., 30 min
Method: (§6) The final concentration of inhibitors was 1 mM. The LipPI12 lipase and protease were assayed with olive oil as substrate after incubation with inhibitors for 30 min.
(§7) Partial understanding of the enzyme catalysis involves the reaction with various inhibitors. […] Various inhibitors were tested at a final concentration of 1 mM (PMSF, EDTA and pepstatin). The purified enzyme was treated with various inhibitors at 20° C. for 30 min prior to measuring the residual activity colorimetrically.

[9] = tested on: LipPI12 protease; assay: Effect of inhibitors on LipPI12 protease activity; assay type: biochemical, Leucosporodium antarcticum PI12; conditions: 1 mM inhibitor, 20° C., 30 min
Method: as §6, §7

[10] = tested on: LipPI12 protease; assay: Effect of surfactants on LipPI12 protease activity; assay type: biochemical, Leucosporodium antarcticum PI12; conditions: 0.1% surfactant, 20° C., 30 min
Method: (§8) The purified LipPI12 lipase and protease were mixed with surfactants (final concentration of 0.1%, v/v) and was incubated at 20° C. for 30 min prior to enzymatic assays. Lipase activity ?; Protease activity ? .
(§9) Surfactants or surface active agents are the most important constituents in the formulation of detergent. Enzyme and surfactants form unique interactions that affect the function of enzyme, i.e. whether to stabilize or destabilize. […] Lipase and protease LipPI12 was treated with various surfactants at a concentration of […] at 20° C. for 30 min before being subjected to lipase and protease assays colorimetrically. The study on the effect of LipPI12 lipase and its protease on various surfactants was carried out using 0.1% of surfactant, namely from TWEEN™ 20-80, TRITON™ X-100, SDS and SLS. […] Remarkably, LipPI12 protease was activated in the presence of TWEEN™ 80 and SLS, with 30 and 70% enhancement, respectively. […] The incubation with SDS also seemed to affect LipPI12 protease catalytic activity, where it dropped to only 27% of its control activity.

[11] = tested on: LipPI12 lipase; assay: Effect of surfactants on LipPI12 lipase activity; assay type: biochemical, Leucosporodium antarcticum PI12; conditions: 0.1% surfactant, 20° C., 30 min
Method: as §8, §9
Target sequence in this assay (as listed by the source): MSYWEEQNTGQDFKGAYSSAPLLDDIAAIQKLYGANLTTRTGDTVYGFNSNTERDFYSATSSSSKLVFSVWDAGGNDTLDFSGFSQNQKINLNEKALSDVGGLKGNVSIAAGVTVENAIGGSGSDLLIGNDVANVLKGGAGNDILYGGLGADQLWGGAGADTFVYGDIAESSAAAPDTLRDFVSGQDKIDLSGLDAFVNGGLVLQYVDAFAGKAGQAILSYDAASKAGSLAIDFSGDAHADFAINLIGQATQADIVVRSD

## CCCCCCCCCCCC [dodecane]
[1]
  effect of organic solvent on lipase: good stability

## [Cl][Fe]([Cl])[Cl] [FeCl3]
[2]
  effect of metal ion on protease activity: do not affect

## CCCCCCCCCC [decane]
[1]
  effect of organic solvent on lipase: total elimination of activity

## CCCCCCCCCCCCCCCC(=O)Oc1ccc([N+](=O)[O-])cc1 [pNP palmitate, p-nitrophenylpalmitate]
[3]
  increment of activity relative to other pNP esters: 60%

## CC1(C)S[C@@H]2[C@H](NC(=O)[C@H](N)c3ccccc3)C(=O)N2[C@H]1C(=O)O [Ampicilin]
[4]
  resistance of isolate PI12: resistance

## c1ccccc1 [benzene]
[1]
  effect of organic solvent on lipase: good stability

## [Cl][Cu][Cl] [CuCl2]
[2]
  effect of metal ion on protease activity: do not affect
  protease relative activity as compared to the control: 4%

## CCCCCCCCCCCCCCCC [hexadecane]
[1]
  effect of organic solvent on lipase: good stability
[5]
  effect of organic solvent on protease: tolerance

## CCCCCCCCCCCC(=O)OCC(COC(=O)CCCCCCCCCCC)OC(=O)CCCCCCCCCCC [trilaurin]
[6]
  relative activity, triglyceride as substrate: 100%

## O=C(N[C@H](CO)[C@H](O)c1ccc([N+](=O)[O-])cc1)C(Cl)Cl [Chloramphenicol]
[4]
  resistance of isolate PI12: resistance

## [Ca+2].[Cl-].[Cl-] [CaCl2]
[7]
  effect of metal ion on lipase activity: activator
[7]; olive oil emulsion
  lipase activity as compared to the control: 115%
[2]
  protease relative activity as compared to the control: ~100%

## O=C(O)CN(CCN(CC(=O)O)CC(=O)O)CC(=O)O [EDTA, ethylene diamine tetraacetic acid]
[8]
  inhibition of lipase: partially inhibited
[9]
  inhibition of protease (words): partially inhibited

## [Cl][Mn][Cl] [MnCl2]
[2]
  protease relative activity as compared to the control: 40%

## [Fe+2] [Fe^2+]
[7]
  effect of metal ion on lipase activity: toxic effect
[2]
  protease relative activity as compared to the control: ~100%

## CCCCCCCCCCCCOS(=O)(=O)[O-].[Na+] [SDS]
[10]
  protease activity remaining, of control activity: 27%

## TWEEN™ 40
[11]
  effect of surfactant on lipase activity: retains its activity
[10]
  effect of surfactant on protease activity: retain its activity

## dimethylsulfonyl
[1]
  increase of lipase activity: ~80%
[5]
  effect of organic solvent on protease: tolerance

## CCCCCC [hexane]
[1]
  effect of organic solvent on lipase: total elimination of activity

## CCOCC [Diethyleter]
[1]
  effect of organic solvent on lipase: total elimination of activity

## TRITON™ X-100
[11]
  effect of surfactant on lipase activity: retains its activity
[10]
  effect of surfactant on protease activity: retain its activity

## [Na+] [Na^+]
[7]
  effect of metal ion on lipase activity: toxic effect
[2]
  effect of metal ion on protease activity: little effect

## TWEEN™ 60
[11]
  effect of surfactant on lipase activity: retains its activity
[10]
  effect of surfactant on protease activity: retain its activity

## CCCCCCCCCCCCOS(=O)(=O)[O-].[Na+] [SLS, Sodium lauryl sulphate]
[10]
  enhancement of protease activity: 70%

## TWEEN™ 80
[10]
  enhancement of protease activity: 30%

## CC(C)CC(=O)N[C@H](C(=O)N[C@H](C(=O)N[C@@H](CC(C)C)[C@@H](O)CC(=O)N[C@@H](C)C(=O)N[C@@H](CC(C)C)[C@@H](O)CC(=O)O)C(C)C)C(C)C [Pepstatin] (Isovaleryl-VV[Sta]A[Sta]-OH)
[9]
  inhibition of protease (words): drastically eliminated
[9]; listed as pepstatin
  inhibition of protease (words): inhibited

## [Cl-].[Cl-].[Zn+2] [ZnCl2]
[2]
  effect of metal ion on protease activity: activator
  protease relative activity as compared to the control: 170%

## O=S(=O)([O-])[O-].[Zn+2] [ZnSO4]
[2]
  effect of metal ion on protease activity: do not affect

## O=S(=O)(F)Cc1ccccc1 [PMSF, phenylmethylsulphonyl fluoride]
[8]
  inhibition of lipase: partially inhibited
[9]
  inhibition of protease (words): partially inhibited

## [Cl-].[Cl-].[Mg+2] [Mg^2+, MgCl2]
[7]
  effect of metal ion on lipase activity: toxic effect
[2]
  effect of metal ion on protease activity: activator
  protease relative activity as compared to the control: ~100%

## CCCO [propanol]
[1]; control in water
  lipase activity in solvent: > 160%

## Cc1ccccc1 [toluene]
[1]
  decrease of lipase activity: more than 50%

## [K+] [IC]
[2]
  effect of metal ion on protease activity: little effect
